Measured values: US8637040B2, “Genus-wide chlamydial peptide vaccine antigens” (priority 2008, dated 2014)

Key:
[1] = tested on: C. trachomatis-infected HEp2 cells; test: Indirect immunofluorescence of immune sera on infected HEp2 cells; type: cell-based, human; conditions: sera 1:40 dilution, FITC anti-mouse IgG
Excerpt: Micrographs of HEp2 cells infected with C. trachomatis are immunostained (by indirect immunofluorescence) with sera (1:40 dilution) from mice immunized with the designated peptides (A-E) or soluble. mAb2 (F). FITC anti-mouse IgG was the detecting antibody. Arrows point to distinct differences in targets of the immune sera. Antibodies in panels A-C recognized EB and RB and possibly some matrix material in the inclusion. Antibodies in D-E also recognized targets in the inclusion matrix and inclusion membrane, similar to immune sera raised against the older vaccine candidate, the entire mAb2 (F). 40× original magnification. Samples are counterstained with Evans blue.
HEp2 cells were infected with C. trachomatis were subjected to cytocentrifugation to deposit them onto microscope slides. After fixation (MeOH) they were stained with sera (1:40 dilution) from mice immunized with the indicated peptides or with soluble mAb2. The binding of the antibodies to the cells was detected using a fluorescent (FITC-labeled) secondary Ab, an anti-mouse IgG. Results appear in FIGS. 9A-F.

C trachomatis = test: DFA staining of vaginal smears after challenge of peptide-immunized mice; type: in vivo, mouse; conditions: mice immunized three times at 100 μg doses; days 7 and 14 post-challenge
Excerpt: Mice are challenged with a human biovar of C trachomatis (K or E serovars for urogenital infections; C or B serovars for ocular infection).
Groups of 4-8 mice are “masked” as to pretreatment before challenge with live elementary bodies (EB). At weekly intervals through at least 4 wks, vaginal (or conjunctival) swabs are collected for isolation culture and direct fluorescence antibody staining for EB.
Using the murine models described above, the present inventors immunized mice with one of the four peptides (Pep4, 7, 8 or 10) administered three times at 100 μg doses. Results of direct fluorescent antibody (DFA) staining are summarized for days 7 and 14 post-challenge in FIGS. 10-11.

[2] = Encapsulation of Pep4 in PLGA nanoparticles and peptide release; type: physicochemical; conditions: carbonate buffer, ELISA with anti-Pep4 antiserum standard curve
Protocol: One preferred approach to the preparation of peptide-loaded polylactide (PLA) or PLGA micro- and/or nanoparticles follows. Biodegradable PLA or PLGA nanoparticles (NPs) loaded with the selected peptides is prepared using a modified version of the double emulsion solvent evaporation technique, in a procedure similar to that previously described by Li and co-workers (139). […] Briefly, an aqueous solution of the peptide is emulsified in dichloromethane containing the PLGA (using an ultrasonic homogenizer), thus forming the primary water-in-oil (w/o) emulsion. The prepared w/o emulsion is then emulsified in a second aqueous phase containing polyvinyl alcohol (PVA) as stabilizer, thus resulting in the multiple w/o/w emulsion. The double emulsion is later added into a large volume of aqueous solution of PVA, and stirred for several hours to evaporate the organic solvent. The resulting nanoparticles are then collected by centrifugation and washed (removing PVA) several times before lyophilization to remove the remaining water (139,140). The powder is kept at −80° C. until use. […] Optimal peptide loading concentrations for protective immunization are determined empirically, e.g., by comparing orally delivered peptide-NP to free peptide delivered subcutaneously. […]

human sera = test: ELISA of human serum samples on 4 peptides (Example XI); type: binding
Protocol: Blood was collected prior to immunizations and prior to the two boosts. Sera were tested in ELISA. The ELISA method used in the present examples, in which many if not all the parameters and conditions may be varied or modified in ways that are completely conventional in the art, is described below. • 1. 96 well plates (Immulon HBX4) were coated with 50 μl of diluted antigen (peptides at 1 μg/well made in carbonate buffer) and incubated overnight at 4° C. • 2. Unbound antigen was removed by flicking the contents of the plate into a sink without further washing. • 3. Non-specific binding was blocked or prevented by adding 300 μL/well of 4% BSA/PBS-Tween 20 (0.05%). This was allowed to incubate for 2 hour at room temperature. • 4. The plates were washed once with PBS-Tween 20 (0.05%) and 50 μl of primary antibody was added per well at appropriate dilutions. When using serum, the starting dilution was 1:40 and was further diluted by doublings to 1:80, 1:160, and 1:320 (or higher as desired). Plates were incubated for 1 hour at 37° C. • 5. Plates were washed three times with PBS-Tween (0.05%) as above and 100 μl of secondary antibody was added per well at appropriate dilutions. For alkaline phosphatase-conjugated goat anti-mouse IgG-AP, a dilution of 1:500 was used here. Plates were incubated for 1 hour at 37° C. • 6. Plates were again washed three times as above and 200 μl of substrate solution for Alkaline phosphatase (p-nitro phenyl phosphate or pNPP) was added at a concentration of 5 mg/ml. The color reaction was read in an automated microplate reader at a frequency of […] and the absorbance (or optical density) was registered (referred to as A405 or OD405) Several important observations were made in these tests against the 4 peptides: (a) all 4 peptides were immunogenic and induced increasing anti-peptide responses with subsequent boosts in all mice (except in one non-responder) (FIG. 3). […] See also FIG. 16A-16B
Human sera were tested by PCR for expression of several chlamydial genes, by IHC against C. trachomatis-infected cells and by ELISA against several of the peptides of the present invention. Results are shown in Table 7 (below) which include results from PCR-studies for presence of DNA encoding the chlamydial Major Outer Membrane Protein (MOMP) in human peripheral blood mononuclear cells (PBMC) (which are primarily lymphocytes and monocytes) and cervical swabs
Also shown is IHC staining of C. trachomatis-infected human HEp2 cells and binding of antibodies in the patient samples to four peptides of the present invention (Pep4, 7, 8, and 10) in ELISA.

AFPQFRSATLLL [Pep4]
structures recognized by immune sera in infected cells [1]: recognized EB and metabolically active, non-infectious reticulate bodies (RB)
DFA scores (C trachomatis): reduced DFA scores
bacterial shedding measured by DFA staining (C trachomatis): reduced bacterial shedding
release of peptide [2]: about 3.8 μg/ml/day
ELISA 1:40 on 4 peptides Scale: 1+-3+ (human sera; human serum sample # 1): 2
ELISA 1:40 on 4 peptides Scale: 1+-3+ (human sera; human serum sample # 2): 0.75
ELISA 1:40 on 4 peptides Scale: 1+-3+ (human sera; human serum sample # 3): 2.5
ELISA 1:40 on 4 peptides Scale: 1+-3+ (human sera; human serum sample # 5): 2
ELISA 1:40 on 4 peptides Scale: 1+-3+ (human sera; human serum sample # 7): 0.75
ELISA 1:40 on 4 peptides Scale: 1+-3+ (human sera; human serum sample # 8): 3
ELISA 1:40 on 4 peptides Scale: 1+-3+ (human sera; human serum sample # 9): 3
ELISA 1:40 on 4 peptides Scale: 1+-3+ (human sera; human serum sample # 10): 3
ELISA 1:40 on 4 peptides Scale: 1+-3+ (human sera; human serum sample # 12): 2
ELISA 1:40 on 4 peptides Scale: 1+-3+ (human sera; human serum sample # 13): 2
ELISA 1:40 on 4 peptides Scale: 1+-3+ (human sera; human serum sample # 16): 2
ELISA 1:40 on 4 peptides Scale: 1+-3+ (human sera; human serum sample # 18): 2.5
ELISA 1:40 on 4 peptides Scale: 1+-3+ (human sera; human serum sample # 21): 1.5
ELISA 1:40 on 4 peptides Scale: 1+-3+ (human sera; human serum sample # 22): 1.5
ELISA 1:40 on 4 peptides Scale: 1+-3+ (human sera; human serum sample # 23): 2
ELISA 1:40 on 4 peptides Scale: 1+-3+ (human sera; human serum sample # 24): 3
ELISA 1:40 on 4 peptides Scale: 1+-3+ (human sera; human serum sample # 26): 2
